From the NIST ThermoML archive (doi:10.1021/je700492k)

Assay: excess molar enthalpy (molar enthalpy of mixing); xn = mol fraction of the nth substance listed
Conditions: Liquid, Flow calorimetry

CC(=O)CC(C)=O [2,4-pentanedione] + CC(C)O
excess molar enthalpy [kcal/mol]
Conditions | 298.15 K | 313.15 K | 328.15 K
100 kPa, x1 = 0.0503 | 0.0985 | 0.101 | 0.103
100 kPa, x1 = 0.1501 | 0.235 | 0.247 | 0.262
100 kPa, x1 = 0.2502 | 0.321 | 0.344 | 0.365
100 kPa, x1 = 0.3499 | 0.374 | 0.403 | 0.43
100 kPa, x1 = 0.3997 | 0.39 | 0.421 | 0.448
100 kPa, x1 = 0.4498 | 0.401 | 0.432 | 0.459
100 kPa, x1 = 0.5001 | 0.405 | 0.436 | 0.462
100 kPa, x1 = 0.5507 | 0.403 | 0.432 | 0.457
100 kPa, x1 = 0.6 | 0.395 | 0.42 | 0.444
100 kPa, x1 = 0.6493 | 0.38 | 0.402 | 0.422
100 kPa, x1 = 0.7 | 0.356 | 0.376 | 0.393
100 kPa, x1 = 0.7999 | 0.285 | 0.296 | 0.305
100 kPa, x1 = 0.8503 | 0.234 | 0.238 | 0.246
100 kPa, x1 = 0.9504 | 0.0914 | 0.0934 | 0.0939
10000 kPa, x1 = 0.0502 | 0.0928 | 0.0986 | 0.103
10000 kPa, x1 = 0.1497 | 0.224 | 0.245 | 0.258
10000 kPa, x1 = 0.2496 | 0.312 | 0.341 | 0.362
10000 kPa, x1 = 0.3492 | 0.367 | 0.402 | 0.426
10000 kPa, x1 = 0.3989 | 0.384 | 0.42 | 0.445
10000 kPa, x1 = 0.449 | 0.395 | 0.431 | 0.456
10000 kPa, x1 = 0.4993 | 0.4 | 0.435 | 0.46
10000 kPa, x1 = 0.5498 | 0.399 | 0.431 | 0.455
10000 kPa, x1 = 0.5992 | 0.391 | 0.42 | 0.443
10000 kPa, x1 = 0.6486 | 0.376 | 0.401 | 0.422
10000 kPa, x1 = 0.6994 | 0.354 | 0.374 | 0.392
10000 kPa, x1 = 0.7993 | 0.284 | 0.294 | 0.304
10000 kPa, x1 = 0.8499 | 0.234 | 0.238 | 0.244
10000 kPa, x1 = 0.9503 | 0.0908 | 0.0922 | 0.0924

CC(=O)CC(C)=O [2,4-pentanedione] + CCO
excess molar enthalpy [kcal/mol]
Conditions | 298.15 K | 313.15 K | 328.15 K
100 kPa, x1 = 0.0496 | 0.0592 | 0.0668 | 0.0752
100 kPa, x1 = 0.0992 | 0.109 | 0.124 | 0.142
100 kPa, x1 = 0.1496 | 0.156 | 0.175 | 0.2
100 kPa, x1 = 0.1992 | 0.193 | 0.219 | 0.25
100 kPa, x1 = 0.2491 | 0.225 | 0.255 | 0.29
100 kPa, x1 = 0.2988 | 0.251 | 0.283 | 0.324
100 kPa, x1 = 0.3482 | 0.273 | 0.309 | 0.353
100 kPa, x1 = 0.3988 | 0.29 | 0.327 | 0.373
100 kPa, x1 = 0.4484 | 0.301 | 0.34 | 0.387
100 kPa, x1 = 0.4988 | 0.309 | 0.348 | 0.395
100 kPa, x1 = 0.5476 | 0.312 | 0.349 | 0.396
100 kPa, x1 = 0.5991 | 0.309 | 0.345 | 0.39
100 kPa, x1 = 0.6484 | 0.3 | 0.334 | 0.377
100 kPa, x1 = 0.6976 | 0.286 | 0.316 | 0.355
100 kPa, x1 = 0.7494 | 0.264 | 0.29 | 0.324
100 kPa, x1 = 0.798 | 0.236 | 0.256 | 0.284
100 kPa, x1 = 0.849 | 0.196 | 0.211 | 0.233
100 kPa, x1 = 0.8992 | 0.146 | 0.154 | 0.169
100 kPa, x1 = 0.9485 | 0.0824 | 0.0848 | 0.0934
100 kPa, x1 = 0.9688 | 0.0518 | 0.0529 | 0.0585
10000 kPa, x1 = 0.0496 | 0.0575 | 0.0658 | 0.0749
10000 kPa, x1 = 0.0992 | 0.109 | 0.124 | 0.139
10000 kPa, x1 = 0.1496 | 0.153 | 0.174 | 0.198
10000 kPa, x1 = 0.1992 | 0.191 | 0.216 | 0.246
10000 kPa, x1 = 0.2491 | 0.223 | 0.253 | 0.287
10000 kPa, x1 = 0.2988 | 0.249 | 0.282 | 0.321
10000 kPa, x1 = 0.3482 | 0.27 | 0.306 | 0.348
10000 kPa, x1 = 0.3988 | 0.287 | 0.325 | 0.369
10000 kPa, x1 = 0.4484 | 0.299 | 0.338 | 0.382
10000 kPa, x1 = 0.4988 | 0.307 | 0.345 | 0.391
10000 kPa, x1 = 0.5476 | 0.309 | 0.347 | 0.391
10000 kPa, x1 = 0.5991 | 0.306 | 0.342 | 0.384
10000 kPa, x1 = 0.6484 | 0.298 | 0.332 | 0.371
10000 kPa, x1 = 0.6976 | 0.284 | 0.315 | 0.351
10000 kPa, x1 = 0.7494 | 0.262 | 0.289 | 0.317
10000 kPa, x1 = 0.798 | 0.234 | 0.256 | 0.276
10000 kPa, x1 = 0.849 | 0.195 | 0.211 | 0.224
10000 kPa, x1 = 0.8992 | 0.143 | 0.153 | 0.163
10000 kPa, x1 = 0.9485 | 0.0813 | 0.084 | 0.0911
10000 kPa, x1 = 0.9688 | 0.0514 | 0.0524 | 0.0568

CC(=O)CC(C)=O [2,4-pentanedione] + CCCO
excess molar enthalpy [kcal/mol]
Conditions | 298.15 K | 313.15 K | 328.15 K
100 kPa, x1 = 0.0502 | 0.0721 | 0.0788 | 0.0869
100 kPa, x1 = 0.1502 | 0.184 | 0.205 | 0.224
100 kPa, x1 = 0.2502 | 0.259 | 0.289 | 0.321
100 kPa, x1 = 0.3504 | 0.311 | 0.347 | 0.385
100 kPa, x1 = 0.4001 | 0.327 | 0.364 | 0.404
100 kPa, x1 = 0.4502 | 0.338 | 0.374 | 0.416
100 kPa, x1 = 0.5006 | 0.344 | 0.38 | 0.421
100 kPa, x1 = 0.5501 | 0.344 | 0.378 | 0.419
100 kPa, x1 = 0.5997 | 0.339 | 0.371 | 0.41
100 kPa, x1 = 0.6495 | 0.327 | 0.355 | 0.392
100 kPa, x1 = 0.6994 | 0.309 | 0.333 | 0.366
100 kPa, x1 = 0.8006 | 0.248 | 0.261 | 0.286
100 kPa, x1 = 0.8504 | 0.202 | 0.211 | 0.233
100 kPa, x1 = 0.9493 | 0.0794 | 0.0835 | 0.0913
10000 kPa, x1 = 0.0502 | 0.0712 | 0.0775 | 0.0866
10000 kPa, x1 = 0.1504 | 0.181 | 0.201 | 0.222
10000 kPa, x1 = 0.2504 | 0.258 | 0.285 | 0.317
10000 kPa, x1 = 0.3507 | 0.309 | 0.343 | 0.379
10000 kPa, x1 = 0.4004 | 0.326 | 0.361 | 0.399
10000 kPa, x1 = 0.4505 | 0.338 | 0.371 | 0.413
10000 kPa, x1 = 0.501 | 0.344 | 0.375 | 0.418
10000 kPa, x1 = 0.5505 | 0.343 | 0.375 | 0.415
10000 kPa, x1 = 0.6001 | 0.339 | 0.367 | 0.405
10000 kPa, x1 = 0.6499 | 0.326 | 0.352 | 0.387
10000 kPa, x1 = 0.6997 | 0.308 | 0.329 | 0.36
10000 kPa, x1 = 0.8009 | 0.246 | 0.257 | 0.282
10000 kPa, x1 = 0.8506 | 0.201 | 0.207 | 0.228
10000 kPa, x1 = 0.9494 | 0.0791 | 0.0806 | 0.0894

CC(=O)CC(C)=O [2,4-pentanedione] + CO
excess molar enthalpy [kcal/mol]
Conditions | 298.15 K | 313.15 K | 328.15 K
100 kPa, x1 = 0.0502 | 0.0494 | 0.0583 | 0.0658
100 kPa, x1 = 0.0995 | 0.0896 | 0.107 | 0.122
100 kPa, x1 = 0.1494 | 0.125 | 0.15 | 0.172
100 kPa, x1 = 0.1998 | 0.154 | 0.187 | 0.215
100 kPa, x1 = 0.2496 | 0.178 | 0.217 | 0.251
100 kPa, x1 = 0.3006 | 0.199 | 0.243 | 0.282
100 kPa, x1 = 0.3504 | 0.215 | 0.263 | 0.307
100 kPa, x1 = 0.3995 | 0.227 | 0.278 | 0.325
100 kPa, x1 = 0.4492 | 0.237 | 0.289 | 0.338
100 kPa, x1 = 0.499 | 0.242 | 0.295 | 0.346
100 kPa, x1 = 0.5509 | 0.244 | 0.296 | 0.348
100 kPa, x1 = 0.5989 | 0.241 | 0.293 | 0.342
100 kPa, x1 = 0.6509 | 0.233 | 0.284 | 0.33
100 kPa, x1 = 0.7006 | 0.221 | 0.269 | 0.312
100 kPa, x1 = 0.7507 | 0.204 | 0.248 | 0.286
100 kPa, x1 = 0.8006 | 0.179 | 0.219 | 0.25
100 kPa, x1 = 0.85 | 0.147 | 0.183 | 0.205
100 kPa, x1 = 0.8983 | 0.109 | 0.136 | 0.152
100 kPa, x1 = 0.95 | 0.057 | 0.0741 | 0.0828
10000 kPa, x1 = 0.0501 | 0.0479 | 0.058 | 0.0654
10000 kPa, x1 = 0.0994 | 0.0879 | 0.107 | 0.121
10000 kPa, x1 = 0.1493 | 0.123 | 0.15 | 0.171
10000 kPa, x1 = 0.1997 | 0.152 | 0.187 | 0.214
10000 kPa, x1 = 0.2494 | 0.176 | 0.217 | 0.25
10000 kPa, x1 = 0.3004 | 0.196 | 0.243 | 0.28
10000 kPa, x1 = 0.3502 | 0.213 | 0.263 | 0.304
10000 kPa, x1 = 0.3993 | 0.225 | 0.277 | 0.323
10000 kPa, x1 = 0.449 | 0.235 | 0.289 | 0.335
10000 kPa, x1 = 0.4988 | 0.24 | 0.294 | 0.343
10000 kPa, x1 = 0.5507 | 0.242 | 0.296 | 0.345
10000 kPa, x1 = 0.5987 | 0.24 | 0.292 | 0.34
10000 kPa, x1 = 0.6507 | 0.233 | 0.283 | 0.328
10000 kPa, x1 = 0.7005 | 0.221 | 0.269 | 0.308
10000 kPa, x1 = 0.7505 | 0.204 | 0.248 | 0.282
10000 kPa, x1 = 0.8004 | 0.179 | 0.219 | 0.246
10000 kPa, x1 = 0.8498 | 0.147 | 0.182 | 0.203
10000 kPa, x1 = 0.8982 | 0.108 | 0.135 | 0.151
10000 kPa, x1 = 0.9499 | 0.0569 | 0.0725 | 0.0819
